Results on nine compounds are retold here after patent US20070093491A1, “Novel condensed n-pyrazinyl-sulphonamides and their use in the treament of chemokine mediated diseases” (priority 2003, published 2007).

Where a name gives a salt, the structure may show the parent alone.

Series [1] concerns the target T1, human recombinant CCR4 receptor (Homo sapiens, UniProt P51679).
T1 construct: host or cells: CHO-K1
T1 sequence (P51679 1-360): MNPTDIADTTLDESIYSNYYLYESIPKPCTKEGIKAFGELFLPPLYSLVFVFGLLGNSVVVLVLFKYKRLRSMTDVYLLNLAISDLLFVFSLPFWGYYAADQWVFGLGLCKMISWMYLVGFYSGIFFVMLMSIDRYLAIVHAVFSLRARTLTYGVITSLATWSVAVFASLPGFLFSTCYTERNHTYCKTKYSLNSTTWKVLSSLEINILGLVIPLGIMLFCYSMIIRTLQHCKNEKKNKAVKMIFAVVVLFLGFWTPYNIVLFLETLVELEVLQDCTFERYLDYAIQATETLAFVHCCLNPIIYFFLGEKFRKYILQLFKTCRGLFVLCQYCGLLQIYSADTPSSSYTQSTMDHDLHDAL
Description: FMAT whole cell binding assay (FB-MDC binding to CHO-K1 cells expressing CCR4). The following applies: inhibition of 2.8 nM FB-MDC binding to CHO-K1 cells stably expressing human recombinant CCR4; two hours incubation at room temperature; FMAT8100 reader. The protocol: FMAT Whole cell Binding Assay
CHO-K1 cells stably expressing the human recombinant CCR4 receptor (Euroscreen; Brussels, Belgium) were cultured in NUT.MIX.F—12(HAM) medium with glutamax-1, containing 10% (v/v) foetal bovine serum and 400 μg ml^−1 geneticin.
Cells were harvested at approximately 70% confluence by treatment with a cell dissociation buffer, and seeded at 5×10^3 cells/100 μl culture medium into wells of a black Costar clear-bottomed 96-well microtitre plates. Plates were incubated overnight at 37° C. in 5% CO2 and used the following day.
Before use, the cell plates were washed twice with 100 μl Hanks balanced salt solution (HBSS). To each well was then added 65 μl of HBSS, 10 μL of 10% DMSO in HBSS±test compound and then 25 μL of 2.8 nM FB-MDC (Applied Biosystems). This fluorescent probe was prepared from a 10 μM stock in 0.08% (v/v) TFA/16% (v/v) acetonitrile, diluted into HBSS.
After two hours incubation in the dark at room temperature, the plates were analysed in an FMAT8100 reader (Applied Biosystems) to measure fluorescence that was associated with binding of FB-MDC to the cells. Compound activity was determined as an pIC50 [log(concentration of compound that results in 50% inhibition)], comparing fluorescence in control and background wells.

Take `COc1nc2cccnc2nc1NS(=O)(=O)c1cccc(Cl)c1Cl` (as salt: TFA) [Example 7, 2,3-Dichloro-N-(2-methoxypyrido[2,3-b]pyrazin-3-yl)benzenesulfonamide]: the melting point fell in the range of 238 to 239 °C.
Take `COc1nc2ccccc2nc1NS(=O)(=O)c1cccc(Cl)c1Cl` [Example 1, 2,3-Dichloro-N-(3-methoxyquinoxalin-2-yl)-benzenesulfonamide]: the IC50 in series [1] was 1580 nM.
The same measure, in the same setting: the figure for `COc1nc2ccccc2nc1NS(=O)(=O)c1ccc(Cl)s1` [Example 3, 5-Chloro-N-(3-methoxyquinoxalin-2-yl)thiophene-2-sulfonamide] is 398 nM; for `O=S(=O)(Nc1nc2ccccc2nc1OCc1ccco1)c1cccs1` [Example 5, N-[3-(2-Furylmethoxy)quinoxalin-2-yl]thiophene-2-sulfonamide] it is 2000 nM.
Compound `COc1cc2nc(NS(=O)(=O)c3cccc(Cl)c3Cl)c(OC)nc2cc1OC` [Example 9, 2,3-Dichloro-N-(3,6,7-trimethoxyquinoxalin-2-yl)benzenesulfonamide] showed a melting point of 215 °C.
Compound `COc1nc2cc(Cl)c(Cl)cc2nc1NS(=O)(=O)c1cccc(Cl)c1Cl` [Example 10, 2,3-Dichloro-N-(6,7-dichloro-3-methoxyquinoxalin-2-yl)benzenesulfonamide] returned a melting point of 283 to 285 °C.
As to `COc1nc2ncc(Br)cc2nc1NS(=O)(=O)c1cccc(Cl)c1Cl` [Example 11, N-(7-Bromo-3-methoxypyrido[2,3-b]pyrazin-2-yl)-2,3-dichlorobenzenesulfonamide], the melting point was 230 to 231 °C.
The same measure, in the same setting: under `COc1nc2cc(Br)cnc2nc1NS(=O)(=O)c1cccc(Cl)c1Cl` [Example 12, N-(7-bromo-2-methoxypyrido[2,3-b]pyrazin-3-yl)-2,3-dichlorobenzenesulfonamide] stands 233 to 234 °C; under `COc1nc2cnccc2nc1NS(=O)(=O)c1cccc(Cl)c1Cl` [Example 13, 2,3-Dichloro-N-(3-methoxypyrido[3,4-b]pyrazin-2-yl)benzenesulfonamide], 256 to 257 °C.
